ChEMBL document CHEMBL4177616, “Potent anti-melanogenic activity and favorable toxicity profile of selected 4-phenyl hydroxycoumarins in the zebrafish model and the computational molecular modeling studies” (Bioorg Med Chem, 2017)
Calls of active or inactive are those of the source. The calls are words filed in the database; no cut-off is given here.

Legend:
[1] = tested on: Neutrophil; assay: Cytotoxicity against mpx:GFP transgenic zebrafish 24 hrs post fertilization embryo neutrophils assessed as loss in neutrophil at 25 ug/ml relative to control; type: cell-based, Danio rerio
[2] = species: Danio rerio; assay: Toxicity in wild type zebrafish embryos assessed as heart beat at 25 ug/ml treated for 96 hrs post fertilization starting from 6 hrs post fertilization by inverted microscopic analysis relative to control; type: organism-based; conditions: in vivo
[3] = species: Danio rerio; assay: Toxicity in wild type zebrafish embryos assessed as head malformation at 25 ug/ml treated for 96 hrs post fertilization starting from 6 hrs post fertilization by inverted microscopic analysis relative to control; type: organism-based; conditions: in vivo
[4] = tested on: Melanocyte; assay: Cytotoxicity against wild type zebrafish embryo melanocytes assessed as small and rounded cells at 12.5 ug/ml treated for 72 hrs post fertilization starting from 6 to 24 hrs post fertilization; type: cell-based, Danio rerio
[5] = tested on: Melanocyte; assay: Cytotoxicity against wild type zebrafish embryo melanocytes assessed as number of melanocyte at 2.5 mg/ml treated for 72 hrs post fertilization starting from 6 to 24 hrs post fertilization; type: cell-based, Danio rerio
[6] = tested on: Melanocyte; assay: Cytotoxicity against wild type zebrafish embryo melanocytes assessed as change in morphology; type: cell-based, Danio rerio
[7] = species: Danio rerio; assay: Toxicity in wild type zebrafish embryos assessed as otoliths at 25 ug/ml treated for 96 hrs post fertilization starting from 6 hrs post fertilization by inverted microscopic analysis relative to control; type: organism-based; conditions: in vivo
[8] = species: Danio rerio; assay: Toxicity in wild type zebrafish embryos assessed as eyes at 25 ug/ml treated for 96 hrs post fertilization starting from 6 hrs post fertilization by inverted microscopic analysis relative to control; type: organism-based; conditions: in vivo
[9] = species: Danio rerio; assay: Toxicity in wild type zebrafish embryos assessed as blood circulation at 25 ug/ml treated for 96 hrs post fertilization starting from 6 hrs post fertilization by inverted microscopic analysis relative to control; type: organism-based; conditions: in vivo
[10] = species: Danio rerio; assay: Toxicity in wild type zebrafish embryos assessed as unhatched embryo at 25 ug/ml treated for 96 hrs post fertilization starting from 6 hrs post fertilization by inverted microscopic analysis relative to control; type: organism-based; conditions: in vivo
[11] = tested on: Melanocyte; assay: Anti-melanogenic activity in wild type zebrafish embryo melanocytes assessed as decrease in pigmentation at 2.5 mg/ml treated for 72 hrs post fertilization starting from 6 to 24 hrs post fertilization; type: functional, cell-based; conditions: Danio rerio
[12] = species: Danio rerio; assay: Toxicity in wild type zebrafish embryos assessed as notochord at 25 ug/ml treated for 96 hrs post fertilization starting from 6 hrs post fertilization by inverted microscopic analysis relative to control; type: organism-based; conditions: in vivo
[13] = species: Danio rerio; assay: Toxicity in wild type zebrafish embryos assessed as teratogenic embryo at 50 ug/ml treated for 96 hrs post fertilization starting from 6 hrs post fertilization by inverted microscopic analysis relative to control; type: organism-based; conditions: in vivo
[14] = species: Danio rerio; assay: Toxicity in wild type zebrafish embryos assessed as eyes at 20 ug/ml treated for 96 hrs post fertilization starting from 6 hrs post fertilization by inverted microscopic analysis relative to control; type: organism-based; conditions: in vivo
[15] = tested on: Danio rerio; assay: Toxicity in wild type zebrafish embryos assessed as pericardial edema at 5 ug/ml treated for 96 hrs post fertilization starting from 6 hrs post fertilization by inverted microscopic analysis relative to control; type: organism-based; conditions: in vivo
[16] = species: Danio rerio; assay: Toxicity in wild type zebrafish embryos assessed as skeletal deformities at 5 ug/ml treated for 96 hrs post fertilization starting from 6 hrs post fertilization by inverted microscopic analysis relative to control; type: organism-based; conditions: in vivo
[17] = species: Danio rerio; assay: Toxicity in wild type zebrafish embryos assessed as teratogenic embryo at 10 ug/ml treated for 96 hrs post fertilization starting from 6 hrs post fertilization by inverted microscopic analysis relative to control; type: organism-based; conditions: in vivo
[18] = Toxicity in wild type zebrafish embryos assessed as dead embryo at 50 ug/ml treated for 96 hrs post fertilization starting from 6 hrs post fertilization by inverted microscopic analysis relative to control; type: organism-based, Danio rerio; conditions: in vivo, read-out: Activity
[19] = species: Danio rerio; assay: Toxicity in wild type zebrafish embryos assessed as blood circulation at 20 ug/ml treated for 96 hrs post fertilization starting from 6 hrs post fertilization by inverted microscopic analysis relative to control; type: organism-based; conditions: in vivo
[20] = species: Danio rerio; assay: Toxicity in wild type zebrafish embryos assessed as heart beat at 5 ug/ml treated for 96 hrs post fertilization starting from 6 hrs post fertilization by inverted microscopic analysis relative to control; type: organism-based; conditions: in vivo
[21] = species: Danio rerio; assay: Toxicity in wild type zebrafish embryos assessed as normal embryo at 10 ug/ml treated for 96 hrs post fertilization starting from 6 hrs post fertilization by inverted microscopic analysis relative to control; type: organism-based; conditions: in vivo
[22] = species: Danio rerio; assay: Anti-melanogenic activity in wild type zebrafish 24 hrs post fertilization embryos assessed as decrease in body pigmentation at 5 to 25 ug/ml after 48 hrs; type: functional, organism-based
[23] = species: Danio rerio; assay: Toxicity in wild type zebrafish embryos assessed as skeletal deformities at 10 ug/ml treated for 96 hrs post fertilization starting from 6 hrs post fertilization by inverted microscopic analysis relative to control; type: organism-based; conditions: in vivo
[24] = species: Danio rerio; assay: Toxicity in wild type zebrafish embryos assessed as growth retardation at 5 ug/ml treated for 96 hrs post fertilization starting from 6 hrs post fertilization by inverted microscopic analysis relative to control; type: organism-based; conditions: in vivo
[25] = species: Danio rerio; assay: Toxicity in wild type zebrafish embryos assessed as notochord at 5 ug/ml treated for 96 hrs post fertilization starting from 6 hrs post fertilization by inverted microscopic analysis relative to control; type: organism-based; conditions: in vivo
[26] = species: Danio rerio; assay: Toxicity in wild type zebrafish embryos assessed as unhatched embryo at 20 ug/ml treated for 96 hrs post fertilization starting from 6 hrs post fertilization by inverted microscopic analysis relative to control; type: organism-based; conditions: in vivo
[27] = tested on: Danio rerio; assay: Toxicity in wild type zebrafish embryos assessed as pericardial edema at 10 ug/ml treated for 96 hrs post fertilization starting from 6 hrs post fertilization by inverted microscopic analysis relative to control; type: organism-based; conditions: in vivo
[28] = species: Danio rerio; assay: Toxicity in wild type zebrafish embryos assessed as notochord at 20 ug/ml treated for 96 hrs post fertilization starting from 6 hrs post fertilization by inverted microscopic analysis relative to control; type: organism-based; conditions: in vivo
[29] = tested on: Danio rerio; assay: Toxicity in wild type zebrafish embryos assessed as pericardial edema at 20 ug/ml treated for 96 hrs post fertilization starting from 6 hrs post fertilization by inverted microscopic analysis relative to control; type: organism-based; conditions: in vivo
[30] = species: Danio rerio; assay: Toxicity in wild type zebrafish embryos assessed as teratogenic embryo at 15 ug/ml treated for 96 hrs post fertilization starting from 6 hrs post fertilization by inverted microscopic analysis relative to control; type: organism-based; conditions: in vivo
[31] = target: T1, Tyrosinase (Danio rerio) (UniProt A0A8M1PAD4); assay: Inhibition of zebrafish embryo tyrosinase assessed as residual activity at 15 ug/ml after 48 hrs relative to control
T1 sequence (whole entry): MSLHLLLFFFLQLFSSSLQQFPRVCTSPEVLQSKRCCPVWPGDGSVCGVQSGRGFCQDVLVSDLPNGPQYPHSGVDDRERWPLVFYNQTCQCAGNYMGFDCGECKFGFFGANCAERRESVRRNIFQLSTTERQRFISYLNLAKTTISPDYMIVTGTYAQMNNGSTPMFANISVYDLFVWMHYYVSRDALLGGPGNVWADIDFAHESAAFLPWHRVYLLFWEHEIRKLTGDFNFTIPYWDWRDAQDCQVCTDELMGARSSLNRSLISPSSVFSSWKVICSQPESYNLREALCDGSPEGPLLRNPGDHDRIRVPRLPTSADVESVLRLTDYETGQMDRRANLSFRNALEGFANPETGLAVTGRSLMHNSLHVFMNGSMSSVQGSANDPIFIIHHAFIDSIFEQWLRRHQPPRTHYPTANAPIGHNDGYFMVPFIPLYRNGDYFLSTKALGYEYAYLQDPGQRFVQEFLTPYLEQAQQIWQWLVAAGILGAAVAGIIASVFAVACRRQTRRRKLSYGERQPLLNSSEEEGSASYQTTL

[32] = species: Danio rerio; assay: Toxicity in wild type zebrafish embryos assessed as heart beat at 15 ug/ml treated for 96 hrs post fertilization starting from 6 hrs post fertilization by inverted microscopic analysis relative to control; type: organism-based; conditions: in vivo

O=c1cc(CO)occ1O [KOJIC ACID]
Activity [1]: Non-Toxic | Activity [2]: 0% | Activity [3]: 0% | Activity [4]: Non-Toxic | Activity [5]: Non-Toxic | Activity [6]: Dose-dependent effect and Tde | Activity [7]: 0% | Activity [8]: 0% | Activity [9]: 0% | Activity [10]: 0% | Activity [11]: Active | Activity [12]: 0%

Oc1ccc(O)cc1 [HYDROQUINONE]
Activity [13]: 0% | Activity [14]: 100% | Activity [15]: 71.7% | Activity [16]: 0% | Activity [17]: 36.7% | mortality at 50 ug/ml [18]: 100% | Activity [19]: 100% | Activity [1]: 30% | Activity [20]: 0% | Activity [21]: 0% | Activity [22]: Active | Activity [23]: 90% | Activity [2]: 100% | Activity [4]: Non-Toxic | Activity [6]: Dose-dependent effect and Tde | Activity [7]: 100% | Activity [8]: 100% | Activity [9]: 100% | Activity [10]: 100% | Activity [24]: 0% | Activity [25]: 0% | Activity [12]: 0% | Activity [26]: 100% | Activity [27]: 100% | Activity [28]: 0% | Activity [29]: 100%

O=c1cc(-c2ccccc2)c2c(O)cc(O)cc2o1
Activity [13]: 25% | Activity [30]: 0% | Activity [14]: 0% | Activity [15]: 0% | Activity [16]: 0% | Activity [17]: 0% | mortality at 50 ug/ml [18]: 0% | Activity [31]: 76% | Activity [19]: 0% | Activity [1]: Non-Toxic | Activity [20]: 0% | Activity [21]: 100% | Activity [22]: Active | Activity [23]: 0% | Activity [2]: 0% | Activity [3]: 0% | Activity [4]: Non-Toxic | Activity [5]: Non-Toxic | Activity [6]: Dose-dependent effect and Tde | Activity [7]: 0% | Activity [8]: 0% | Activity [9]: 0% | Activity [10]: 0% | Activity [11]: Active | Activity [32]: 0% | Activity [24]: 0% | Activity [25]: 0% | Activity [12]: 0% | Activity [26]: 0% | Activity [27]: 0% | Activity [28]: 0% | Activity [29]: 0%

O=c1cc(-c2ccccc2)c2ccc(O)cc2o1
Activity [13]: 0% | Activity [30]: 0% | Activity [14]: 0% | Activity [15]: 0% | Activity [16]: 0% | Activity [17]: 0% | mortality at 50 ug/ml [18]: 0% | Activity [31]: 92% | Activity [19]: 0% | Activity [1]: Non-Toxic | Activity [20]: 0% | Activity [21]: 100% | Activity [22]: Active | Activity [23]: 0% | Activity [2]: 0% | Activity [3]: 0% | Activity [4]: Non-Toxic | Activity [5]: Non-Toxic | Activity [6]: Dose-dependent effect and Tde | Activity [7]: 0% | Activity [8]: 0% | Activity [9]: 0% | Activity [10]: 0% | Activity [11]: Active | Activity [32]: 0% | Activity [24]: 0% | Activity [25]: 0% | Activity [12]: 0% | Activity [26]: 0% | Activity [27]: 0% | Activity [28]: 0% | Activity [29]: 0%
